The values below come from EP4768498A1, “PEPTIDE, DROPLET FORMING KIT, DROPLET FORMING METHOD, HYDROPHOBIC SUBSTANCE CONCENTRATION METHOD, AND PROTEIN FOLDING METHOD” (National University Corporation Tokyo University Of …, priority 2023, dated 2026).

The nature of series [1]: Transmittance measurement (transition temperature). Format: physicochemical. As to conditions: 2 wt% solution, 50 mM Tris-HCl (pH: 7.5) containing 0.3 M sodium chloride, absorbance at 600 nm. The procedure:
FF-ELP4 or LL-ELP4 was dissolved in 50 mM Tris-HCl (pH: 7.5) containing 0.3 M sodium chloride and incubated at 60°C. LL-ELP4 was dissolved in 50 mM Tris-HCl (pH: 7.5) to a final concentration of 2 wt%. Since FF-ELP4 could not be dissolved to a final concentration of 2 wt%, it was dissolved in 50 mM Tris-HCl (pH: 7.5) to a final concentration of 1 wt%. Transmittance measurement was carried out using an ultraviolet-visible spectrophotometer V-650 manufactured by JASCO Corporation (Tokyo, Japan). For the samples prepared as described above, absorbance at a wavelength of 600 nm was monitored while changing the temperature. A quartz cell (optical path length: 10 mm) of Sansyo Co., Ltd. was used as a measurement cell. […] LL-ELP4-SS was dissolved in 50 mM Tris-HCl (pH: 7.5) containing 0.3 M sodium chloride and incubated at 60°C. LL-ELP4-SS was dissolved in 50 mM Tris-HCl (pH: 7.5) to a final concentration of 2 wt%. Transmittance measurement was carried out using an ultraviolet-visible spectrophotometer V-650 manufactured by JASCO Corporation (Tokyo, Japan). For the samples prepared as described above, absorbance at a wavelength of 600 nm was monitored while changing the temperature. A quartz cell (optical path length: 10 mm) of Sansyo Co., Ltd. was used as a measurement cell.

Series [2] is described as follows: Phase-contrast microscope observation of droplets. The conditions noted are these: 60°C. Format: physicochemical. The method, then:
Phase-contrast microscope observation was carried out using IX-73 manufactured by Olympus Corporation (Tokyo, Japan). A sample was dropped onto a slide glass, and a cover glass was placed over the sample through a silicone spacer having a thickness of 0.2 mm. The sample was observed while incubating at 60°C. The samples were prepared by dissolving FF-ELP4 or LL-ELP4 in 50 mM Tris-HCl (pH: 7.5) containing 0.3 M sodium chloride. FF-ELP4 was dissolved to a final concentration of 1 wt%. LL-ELP4 was dissolved to a final concentration of 5 wt%.
Phase-contrast microscope observation was carried out using IX-73 manufactured by Olympus Corporation (Tokyo, Japan). A sample in which a cover glass was placed on the peptide solution through a silicone spacer having a thickness of 0.2 mm on a slide glass was observed while incubating at 60°C. The peptide solution was prepared by dissolving LL-ELP4 to 2 wt% and LL-ELP4-SS to 0.7 mM (0.16 wt%) in 50 mM Tris-HCl (pH: 7.5) containing 0.3 M sodium chloride.
Phase-contrast microscope observation was carried out using IX-73 manufactured by Olympus Corporation (Tokyo, Japan). A sample in which a cover glass was placed on the peptide solution through a silicone spacer having a thickness of 0.2 mm on a slide glass was observed while incubating at 60°C. The peptide solution was prepared by dissolving LL-ELP4-SS to 2 wt% in 50 mM Tris-HCl (pH: 7.5) containing 0.3 M sodium chloride.
(§1) A folding test of denatured BPTI was performed in the same manner as in <Folding test of denatured BPTI: LL-ELP4/LL-ELP4-SS mixed solution> described above, except that LL-ELP4-SS was used alone instead of the combination of LL-ELP4 and LL-ELP4-SS. The final concentration of LL-ELP4-SS in the test solution was 0.16 wt%.

In series [3] the test system is Reduced and denatured BPTI. As to the kind of experiment: Evaluation of incorporation of denatured BPTI into droplets. The arrangement: species or system Bovine. As to conditions: for Reduced and denatured BPTI Inside droplets / Reduced and denatured BPTI Outside droplets: BPTI 30 µM, 60°C overnight. The procedure: (§2) FF-ELP4 or LL-ELP4 was dissolved in 50 mM Tris-HCl (pH: 7.5) containing 0.3 M sodium chloride, and pre-incubated at 60°C for 1 minute. […] The mixture was incubated at 60°C overnight, centrifuged (8,000 rpm, 25°C, 30 seconds) using a high-spin mini centrifuge HSC-12000 manufactured by Taiyo Corporation (Osaka, Japan), and quickly separated into a supernatant and a precipitate (droplets). 400 µL of a 1 M HCl aqueous solution was added to each of the supernatant and the precipitate to stop the reaction. For each of the supernatant and the precipitate, the reduced and denatured BPTI or the native BPTI was quantified by HPLC analysis. The analysis was performed by reverse-phase high-performance liquid chromatography (RP-HPLC) using a Primaide HPLC system (1410 UV detector, 1310 column oven, 1110 pump) manufactured by Hitachi High-Tech Corporation (Tokyo, Japan) and a TSKgel Protein C4-300 column (4.6 mmφ × 150 mm) manufactured by Tosoh Corporation (Tokyo, Japan) at a flow rate of 1.0 mL·min^-1 (Solvent A: water containing 0.05% TFA, Solvent B: acetonitrile containing 0.05% TFA; ratio of Solvent A: linear gradient of 95% at 0 min, 80% at 15 min, and 30% at 115 min).

The subject of a further series is Native BPTI. In words: Evaluation of incorporation of native BPTI into droplets. Set-up: species or system Bovine. As to conditions: BPTI 30 µM, 60°C overnight. The method, then:
as §2

For series [4], the system named is Reduced and denatured BPTI. In words: Folding test of denatured BPTI. Format: biochemical, Bovine. The conditions noted are these: LL-ELP4-SS alone 0.16 wt%, no droplets, no centrifugation, BPTI 30 µM, 60°C. The procedure:
LL-ELP4 and LL-ELP4-SS were dissolved in a buffer (50 mM Tris-HCl, 0.3 M NaCl, pH: 7.5) and pre-incubated at 60°C for 3 minutes. […] The mixture was incubated at 60°C, and when 1 minute, 10 minutes, and 60 minutes had elapsed, it was centrifuged (10,000 rpm, 25°C, 10 seconds) using a high-spin mini centrifuge HSC-12000 manufactured by Taiyo Corporation (Osaka, Japan) and quickly separated into a supernatant and a precipitate. To both the supernatant and the precipitate, 1 M aqueous HCl was added to quench the reaction. The samples were analyzed by reverse-phase high-performance liquid chromatography (RP-HPLC) using a Primaide HPLC system (1410 UV detector, 1310 column oven, and 1110 pump) manufactured by Hitachi, Ltd. (Tokyo, Japan) and a TSKgel Protein C4-300 column (4.6 mm i.d. × 150 mm) manufactured by Tosoh Corporation (Tokyo, Japan) at a flow rate of 1.0 mL min-1 (Solvent A: water containing 0.05% TFA; Solvent B: acetonitrile containing 0.05% TFA; linear gradient of Solvent A: 95% at 0 min, 80% at 15 min, and 30% at 115 min).
as §1

Positions of bridges follow the written chain, without caps; N, C: chain ends. No end group written: not given here.

“Ac-LLVPGVGVPGVGVPGVGVPGVG-NH2 [LL-ELP4, LL-(VPGVG)4]”: the transition temperature in series [1] was 53 °C. Besides, the droplets observed entry in series [2] (5 wt% solution) was “droplets of appropriate size were observed”. Moreover, in series [3] (peptide 2 wt%), the “Reduced and denatured BPTI Inside droplets” value is on record as 91%; the “Reduced and denatured BPTI Outside droplets” value is recorded as 9%. Further, in series [3] (peptide 5 wt%), the “Reduced and denatured BPTI Inside droplets” value is listed as over 99%; the “Reduced and denatured BPTI Outside droplets” value is recorded as under 1%. For the same substance, the “aggregation of reduced and denatured BPTI recovered from the droplets” value in series [3] (peptide 5 wt%, redispersed in water) is “aggregation was suppressed”. Also, in the series on Native BPTI (peptide 2 wt%), the “Native BPTI Inside droplets” value was 3% and the “Native BPTI Outside droplets” value was 97%. Also, in the series on Native BPTI (peptide 5 wt%), the “Native BPTI Inside droplets” value is on record as 7% and the “Native BPTI Outside droplets” value is 93%.
With “LL-(VPGVG)2-CGHC-(VPGVG)2 (LLVPGVGVPGVGCGHCVPGVGVPGVG; disulfide 13-16 (inferred)) [LL-ELP4-SS]”, the transition temperature in series [1] was determined as 48 °C. Further, the droplet formation result in series [2] (0.16 wt% solution in the folding test) is listed as “droplets were not formed”. Further, in series [2] (2 wt% solution), the droplets observed result is on record as “Droplets of appropriate size were observed”. The “added reduced and denatured BPTI detected as native structural BPTI” value in series [4] was at least 99%.
